Source: patent US8106055B2, “Substituted amide compounds” (Gruenenthal GmbH, priority 2007, dated 2012)

Columns and labels:
[1] = molecular target: T1, serotonin (5-HT) reuptake (Rattus norvegicus, UniProt P31652); experiment: Inhibition of serotonin (5HT) reuptake in synaptosomes from rat brain; type: biochemical; settings: test concentration of 10 μM
T1 construct: synaptosomes are freshly isolated from areas of the rat brain; from tissue; host or cells: rat brain synaptosomes (P2 fraction)
Outline: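 Compounds screened at 10 μM and reported as percent inhibition of serotonin uptake. Uptake measured in a freshly prepared P2 synaptosomal fraction from rat brain.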

[2] = molecular target: T2, human bradykinin 1 receptor (B1R) (Homo sapiens, UniProt P46663); experiment: Functional investigation on the human bradykinin 1 receptor (B1R), Ca2+ FLIPR assay in CHO K1 hB1R cells; type: cell-based; settings: B1R antagonism human; test substance 10 μM; Ca2+ FLIPR, CHO K1 hB1R cells
T2 construct: expressed in transfected cells; host or cells: CHO K1 cells
T2 sequence (P46663 1-353): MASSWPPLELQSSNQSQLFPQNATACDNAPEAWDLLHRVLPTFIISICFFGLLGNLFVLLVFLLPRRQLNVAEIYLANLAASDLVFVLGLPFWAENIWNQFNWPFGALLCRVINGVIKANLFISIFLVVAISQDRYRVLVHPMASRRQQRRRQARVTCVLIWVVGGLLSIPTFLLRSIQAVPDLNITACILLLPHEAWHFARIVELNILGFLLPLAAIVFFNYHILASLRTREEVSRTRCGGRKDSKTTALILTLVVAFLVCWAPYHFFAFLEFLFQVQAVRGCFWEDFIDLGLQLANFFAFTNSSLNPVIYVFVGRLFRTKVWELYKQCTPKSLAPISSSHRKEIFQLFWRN
Outline: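 Peak Ca2+-dependent fluorescence in B1R-transfected CHO K1 cells measures antagonism of an EC80 agonist challenge given 10-20 min after compound. Agonist is Lys-Des-Arg9-bradykinin for human, Des-Arg9-bradykinin for rat receptor.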

T1 sequence (P31652 whole entry): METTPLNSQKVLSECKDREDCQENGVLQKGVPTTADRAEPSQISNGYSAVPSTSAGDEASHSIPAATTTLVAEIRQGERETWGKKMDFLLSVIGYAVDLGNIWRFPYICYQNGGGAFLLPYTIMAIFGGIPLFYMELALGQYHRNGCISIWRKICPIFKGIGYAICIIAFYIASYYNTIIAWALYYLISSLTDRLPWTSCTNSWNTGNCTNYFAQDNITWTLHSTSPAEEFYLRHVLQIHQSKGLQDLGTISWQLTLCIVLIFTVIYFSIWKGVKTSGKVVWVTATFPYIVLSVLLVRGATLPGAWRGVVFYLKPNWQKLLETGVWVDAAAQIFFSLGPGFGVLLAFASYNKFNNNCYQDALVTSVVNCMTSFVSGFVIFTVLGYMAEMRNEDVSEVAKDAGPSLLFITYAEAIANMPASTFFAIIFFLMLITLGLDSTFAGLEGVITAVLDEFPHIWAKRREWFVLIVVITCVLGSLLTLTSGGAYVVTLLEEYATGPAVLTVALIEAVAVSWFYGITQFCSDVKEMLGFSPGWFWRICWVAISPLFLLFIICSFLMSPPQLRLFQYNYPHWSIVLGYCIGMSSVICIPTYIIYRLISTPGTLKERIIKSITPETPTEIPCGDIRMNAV

| Compound | 5-HT (inhibition of reuptake of serotonin, % inhibition) [1] [%] | B1R Ant. h [10 μM] % Inhibition [2] [%] | 5-HT (inhibition of reuptake of serotonin, % inhibition) ([1]; 10 µM) [%] |
| --- | --- | --- | --- |
| COc1cc(C)c(S(=O)(=O)N2CCCC(OCC(=O)NCC3CCC(C(CCc4ccccc4)N(C)C)CC3)C2)c(C)c1C (stereo not shown) [Example 551] | 85 | 94 |  |
| CN(C)C(CCc1ccccc1)C1CCC(CNC(=O)COC2CCN(S(=O)(=O)c3cccc(C(F)(F)F)c3)C2)CC1 (stereo not shown) [Example 552] | 90 | 49 |  |
| CN(C)C(c1ccc(F)cc1)C1CCC(CCNC(=O)COC2CCN(S(=O)(=O)c3ccccc3)CC2)CC1 (stereo not shown) [Example 553] | 94 | −21 |  |
| COc1cc(C)c(S(=O)(=O)N(CCOCC(=O)NCCC2CCC(C(c3ccc(F)cc3)N(C)C)CC2)Cc2ccccc2)c(C)c1C (stereo not shown) [Example 554] | 92 | 23 |  |
| COc1ccc(S(=O)(=O)N2CCCCC2COCC(=O)NC2CCC(C(c3ccc(F)cc3)N(C)C)CC2)cc1OC (stereo not shown) [Example 555] | 86 | −14 |  |
| CN(C)C(CCc1ccccc1)C1CCC(CNC(=O)COCCN(C)S(=O)(=O)c2cccc(C(F)(F)F)c2)CC1 (stereo not shown) [Example 556] | 86 | 82 |  |
| CN(C)C(CCc1ccccc1)C1CCC(CNC(=O)COC2CCN(S(=O)(=O)c3ccc(Cl)cc3)C2)CC1 (stereo not shown) [Example 557] | 88 | 20 |  |
| CN(C)C(CCc1ccccc1)C1CCC(CNC(=O)COC2CCCN(S(=O)(=O)c3ccccc3)C2)CC1 (stereo not shown) [Example 558] | 92 | 14 |  |
| COc1ccc(S(=O)(=O)N2CCCCC2COCC(=O)NCC2CCC(C(CCc3ccccc3)N(C)C)CC2)cc1OC (stereo not shown) [Example 559] |  | 2 | 84 |
| COc1cc(C)c(S(=O)(=O)N(CCOCC(=O)NCC2CCC(C(c3ccc(Cl)cc3)N(C)C)CC2)Cc2ccccc2)c(C)c1C (stereo not shown) [Example 560] | 47 | 16 |  |
| COc1cc(C)c(S(=O)(=O)N2CCC(CCOCC(=O)NCCC3CCC(C(c4ccc(Cl)cc4)N(C)C)CC3)CC2)c(C)c1C (stereo not shown) [Example 561] | 79 | −1 |  |
| COc1cc(C)c(S(=O)(=O)N(CCOCC(=O)NCC2CCC(C(CCc3ccccc3)N(C)C)CC2)Cc2ccccc2)c(C)c1C (stereo not shown) [Example 562] | 96 | 91 |  |
| COc1cc(C)c(S(=O)(=O)N(CCOCC(=O)NCC2CCC(C(c3ccc(F)cc3)N(C)C)CC2)Cc2ccccc2)c(C)c1C (stereo not shown) [Example 563] | 90 | 54 |  |
| COc1cc(C)c(S(=O)(=O)N2CCC(OCC(=O)NCC3CCC(C(CCc4ccccc4)N(C)C)CC3)C2)c(C)c1 (stereo not shown) [Example 565] | 94 | 102 |  |
| COc1ccc(S(=O)(=O)N2CCC(OCC(=O)NCC3CCC(C(CCc4ccccc4)N(C)C)CC3)C2)cc1OC (stereo not shown) [Example 566] | 87 | 1 |  |
| CN(C)C(CCc1ccccc1)C1CCC(CNC(=O)COCCN(C)S(=O)(=O)c2ccc(OC(F)(F)F)cc2)CC1 (stereo not shown) [Example 567] | 93 | 75 |  |

| Compound | 5-HT (inhibition of reuptake of serotonin, % inhibition) [1] [%] | B1R Ant. h [10 μM] % Inhibition [2] [%] | 5-HT (inhibition of reuptake of serotonin, % inhibition) ([1]; 10 µM) [%] |
| --- | --- | --- | --- |
| CN(C)C(c1ccc(F)cc1)C1CCC(CNC(=O)COC2CCN(S(=O)(=O)c3ccccc3)CC2)CC1 (stereo not shown) [Example 568] | 97 | −20 |  |
| COc1cc(C)c(S(=O)(=O)N(CCOCC(=O)NCCC2CCC(C(c3ccc(Cl)cc3)N(C)C)CC2)Cc2ccccc2)c(C)c1 (stereo not shown) [Example 569] | 52 | 14 |  |
| COc1ccc(S(=O)(=O)N2CCCCC2COCC(=O)NCC2CCC(C(CCc3ccccc3)N(C)C)CC2)cc1OC (stereo not shown) [Example 570] |  | −18 | 87 |
| COc1ccc(S(=O)(=O)N(C)CCOCC(=O)NCC2CCC(C(CCc3ccccc3)N(C)C)CC2)cc1OC (stereo not shown) [Example 571] | 88 | −10 |  |
| COc1ccc(S(=O)(=O)N2CCCC2COCC(=O)NCC2CCC(C(CCc3ccccc3)N(C)C)CC2)cc1 (stereo not shown) [Example 572] | 93 | 50 |  |
| CN(C)C(CCc1ccccc1)C1CCC(CNC(=O)COC2CCN(S(=O)(=O)c3ccccc3)C2)CC1 (stereo not shown) [Example 573] | 100 | −4 |  |
| CN(C)C(CCc1ccccc1)C1CCC(CNC(=O)COC2CCN(S(=O)(=O)c3ccc(F)cc3)C2)CC1 (stereo not shown) [Example 574] | 94 | 2 |  |
| CN(C)C(c1ccc(Cl)cc1)C1CCC(CCNC(=O)COCCN(C)S(=O)(=O)c2ccc(OC(F)(F)F)cc2)CC1 (stereo not shown) [Example 575] | 77 | −4 |  |
| COc1cc(C)c(S(=O)(=O)N(CCOCC(=O)NCCC2CCC(C(c3ccc(Cl)cc3)N(C)C)CC2)Cc2ccccc2)c(C)c1C (stereo not shown) [Example 576] | 73 | −6 |  |
| CN(C)C(CCc1ccccc1)C1CCC(CNC(=O)COC2CCN(S(=O)(=O)c3ccccc3)CC2)CC1 (stereo not shown) [Example 578] | 94 | −14 |  |
| CN(C)C(CCc1ccccc1)C1CCC(CNC(=O)COCCN(C)S(=O)(=O)c2c(Cl)cccc2Cl)CC1 (stereo not shown) [Example 580] |  | 95 | 77 |
| COc1ccc(S(=O)(=O)N2CCCCC2COCC(=O)NCCC2CCC(C(c3cccc(F)c3)N(C)C)CC2)cc1OC (stereo not shown) [Example 581] |  | 2 | 70 |
| CN(C)C(c1ccc(F)cc1)C1CCC(CNC(=O)COCCC2CCN(S(=O)(=O)c3ccccc3)CC2)CC1 (stereo not shown) [Example 583] | 77 | −27 |  |
| CN(C)C(c1ccc(Cl)cc1)C1CCC(CNC(=O)COCCC2CCN(S(=O)(=O)c3ccccc3)CC2)CC1 (stereo not shown) [Example 584] | 64 | −20 |  |
| CN(C)C(c1ccc(F)cc1)C1CCC(CCNC(=O)COCCN(C)S(=O)(=O)c2ccc(Cl)cc2Cl)CC1 (stereo not shown) [Example 586] | 73 | 95 |  |
| Cc1cc(C)c(S(=O)(=O)N(C)CCOCC(=O)NCCC2CCC(C(c3cccc(F)c3)N(C)C)CC2)c(C)c1 (stereo not shown) [Example 587] | 86 | −14 |  |
